Values after ≈ are worked out from the molar mass of the structure shown. Active and inactive are the calls of the source. No cut-off for these calls is given here.
Tests used:
Klebsiella pneumoniae [1] = experiment: Ratio of MIC for multidrug-resistant Klebsiella pneumoniae NCTC 13368-7-R1 measured after 10 passages to MIC for multidrug-resistant Klebsiella pneumoniae NCTC 13368-7-R1 measured after 10 passages in presence of efflux pump inhibitor PAbetaN; type: functional
Klebsiella pneumoniae [2] = experiment: Antibacterial activity against multidrug-resistant Klebsiella pneumoniae NCTC 13368-7-R2 measured after 10 passages in presence of membrane permeabilizer PMBN by microdilution broth method; type: functional
Pseudomonas aeruginosa [3] = experiment: Antimicrobial activity against multidrug-resistant Pseudomonas aeruginosa NCTC 13437 in presence of membrane permeabilizer PMBN by microdilution broth method; type: functional
Acinetobacter baumannii [4] = experiment: Antimicrobial activity against multidrug-resistant Acinetobacter baumannii NCTC 13302 by microdilution broth method; type: functional
Klebsiella pneumoniae [5] = experiment: Antibacterial activity against multidrug-resistant Klebsiella pneumoniae NCTC 13368-7-R2 measured after 10 passages in presence of efflux pump inhibitor PAbetaN by microdilution broth method; type: functional
Acinetobacter baumannii [6] = experiment: Antimicrobial activity against multidrug-resistant Acinetobacter baumannii NCTC 13424 by microdilution broth method; type: functional
Acinetobacter baumannii [7] = experiment: Bactericidal activity against Acinetobacter baumannii AYE assessed as reduction in viable bacterial count at 4 times MIC measured up to 24 hrs by Miles-Misra dilution method based time-kill assay; type: functional, organism-based
Klebsiella pneumoniae [8] = experiment: Antimicrobial activity against multidrug-resistant Klebsiella pneumoniae 16 in presence of membrane permeabilizer PMBN by microdilution broth method; type: functional
Klebsiella pneumoniae [9] = experiment: Antibacterial activity against multidrug-resistant Klebsiella pneumoniae NCTC 13368-7-R2 measured after 10 passages in presence of efflux pump inhibitor CCCP by microdilution broth method; type: functional
Klebsiella pneumoniae [10] = experiment: Antimicrobial activity against Klebsiella pneumoniae M6 by microdilution broth method; type: functional
Klebsiella pneumoniae [11] = experiment: Ratio of MIC for multidrug-resistant Klebsiella pneumoniae NCTC 13368-7-R2 measured after 10 passages to MIC for multidrug-resistant Klebsiella pneumoniae NCTC 13368-7-R2 measured after 10 passages in presence of efflux pump inhibitor PAbetaN; type: functional
Acinetobacter baumannii [12] = experiment: Antimicrobial activity against multidrug-resistant Acinetobacter baumannii UKA7 by microdilution broth method; type: functional
Klebsiella pneumoniae [13] = experiment: Antibacterial activity against multidrug-resistant Klebsiella pneumoniae NCTC 13368-7-R1 measured after 10 passages by microdilution broth method; type: functional
Klebsiella pneumoniae [14] = experiment: Antimicrobial activity against multidrug-resistant Klebsiella pneumoniae NCTC 13368 in presence of membrane permeabilizer PMBN by microdilution broth method; type: functional
Acinetobacter baumannii [15] = experiment: Antimicrobial activity against multidrug-resistant Acinetobacter baumannii AYE in presence of efflux pump inhibitor CCCP by microdilution broth method; type: functional
Klebsiella pneumoniae [16] = experiment: Antibacterial activity against multidrug-resistant Klebsiella pneumoniae NCTC 13368-7-R1 measured after 10 passages in presence of efflux pump inhibitor CCCP by microdilution broth method; type: functional
Klebsiella pneumoniae [17] = experiment: Ratio of MIC for multidrug-resistant Klebsiella pneumoniae NCTC 13368 to MIC for multidrug-resistant Klebsiella pneumoniae NCTC 13368 in presence of membrane permeabilizer PMBN; type: functional
Klebsiella pneumoniae [18] = experiment: Bactericidal activity against multidrug-resistant Klebsiella pneumoniae NCTC 13368 assessed as reduction in viable bacterial count at 4 times MIC measured after 6 hrs by Miles-Misra dilution method based time-kill assay; type: functional, organism-based
Klebsiella pneumoniae [19] = experiment: Bactericidal activity against multidrug-resistant Klebsiella pneumoniae NCTC 13438 assessed as reduction in viable bacterial count at 4 times MIC measured up to 24 hrs by Miles-Misra dilution method based time-kill assay; type: functional, organism-based
Klebsiella pneumoniae [20] = experiment: Bactericidal activity against multidrug-resistant Klebsiella pneumoniae NCTC 13368 assessed as reduction in viable bacterial count at 4 times MIC measured after 24 hrs by Miles-Misra dilution method based time-kill assay; type: functional, organism-based
Pseudomonas aeruginosa [21] = experiment: Antimicrobial activity against multidrug-resistant Pseudomonas aeruginosa NCTC 13437 by microdilution broth method; type: functional
Klebsiella pneumoniae [22] = experiment: Ratio of MIC for multidrug-resistant Klebsiella pneumoniae NCTC 13368-7-R2 measured after 10 passages to MIC for multidrug-resistant Klebsiella pneumoniae NCTC 13368-7-R2 measured after 10 passages in presence of membrane permeabilizer PMBN; type: functional
Klebsiella pneumoniae [23] = experiment: Antibacterial activity against multidrug-resistant Klebsiella pneumoniae NCTC 13368-7-R1 measured after 10 passages in presence of membrane permeabilizer PMBN by microdilution broth method; type: functional
Klebsiella pneumoniae [24] = experiment: Ratio of MIC for multidrug-resistant Klebsiella pneumoniae NCTC 13368-7-R1 measured after 10 passages to MIC for multidrug-resistant Klebsiella pneumoniae NCTC 13368-7-R1 measured after 10 passages in presence of membrane permeabilizer PMBN; type: functional
Acinetobacter baumannii [25] = experiment: Antimicrobial activity against multidrug-resistant Acinetobacter baumannii W1 by microdilution broth method; type: functional
Klebsiella pneumoniae [26] = experiment: Antimicrobial activity against multidrug-resistant Klebsiella pneumoniae NCTC 13438 in presence of efflux pump inhibitor CCCP by microdilution broth method; type: functional
Klebsiella pneumoniae [27] = experiment: Antimicrobial activity against multidrug-resistant Klebsiella pneumoniae NCTC 13368 by microdilution broth method; type: functional
Klebsiella pneumoniae [28] = experiment: Antibacterial activity against multidrug-resistant Klebsiella pneumoniae NCTC 13368-7-R2 measured after 10 passages by microdilution broth method; type: functional
Klebsiella pneumoniae [29] = experiment: Antibacterial activity against multidrug-resistant Klebsiella pneumoniae NCTC 13368-7-R1 measured after 10 passages in presence of efflux pump inhibitor PAbetaN by microdilution broth method; type: functional
Acinetobacter baumannii [30] = experiment: Bactericidal activity against Acinetobacter baumannii NCTC 13424 assessed as reduction in viable bacterial count at 4 times MIC measured up to 24 hrs by Miles-Misra dilution method based time-kill assay; type: functional, organism-based
[31] = Ratio of MIC for Pseudomonas aeruginosa PAO1 to MIC for Pseudomonas aeruginosa harboring MexCD mutant; type: functional
Klebsiella pneumoniae [32] = experiment: Antimicrobial activity against Klebsiella pneumoniae M6 assessed as mutation frequency at 4 times MIC measured after 48 hrs; type: functional
Klebsiella pneumoniae [33] = experiment: Bactericidal activity against multidrug-resistant Klebsiella pneumoniae NCTC 13438 assessed as viable bacterial count at 4 times MIC measured after 4 to 24 hrs by Miles-Misra dilution method based time-kill assay; type: functional, organism-based
Acinetobacter baumannii [34] = experiment: Bactericidal activity against Acinetobacter baumannii ATCC 17978 assessed as reduction in viable bacterial count at 4 times MIC measured up to 24 hrs by Miles-Misra dilution method based time-kill assay; type: functional, organism-based
Escherichia coli = experiment: Antimicrobial activity against multidrug-resistant Escherichia coli NCTC 12923 assessed as mutation frequency at 4 times MIC measured after 48 hrs; type: functional
Acinetobacter baumannii [35] = experiment: Ratio of MIC for multidrug-resistant Acinetobacter baumannii AYE to MIC for multidrug-resistant Acinetobacter baumannii AYE in presence of efflux pump inhibitor PAbetaN; type: functional
Acinetobacter baumannii [36] = experiment: Ratio of MIC for multidrug-resistant Acinetobacter baumannii AYE to MIC for multidrug-resistant Acinetobacter baumannii AYE in presence of efflux pump inhibitor CCCP; type: functional
Acinetobacter baumannii [37] = experiment: Antimicrobial activity against Acinetobacter baumannii ATCC 17978 assessed as mutation frequency at 4 times MIC measured after 48 hrs; type: functional
Acinetobacter baumannii [38] = experiment: Bactericidal activity against Acinetobacter baumannii AYE assessed as reduction in viable bacterial count at 4 times MIC measured after 24 hrs by Miles-Misra dilution method based time-kill assay; type: functional, organism-based
Klebsiella pneumoniae [39] = experiment: Bactericidal activity against multidrug-resistant Klebsiella pneumoniae 16 assessed as viable bacterial count at 4 times MIC measured after 4 to 24 hrs by Miles-Misra dilution method based time-kill assay; type: functional, organism-based

`COc1cc2c(cc1OCCCC(=O)Nc1cc(C(=O)Nc3ccc4oc(C(=O)N5CCSCC5)cc4c3)n(C)c1)N=C[C@@H]1CCCN1C2=O` gave a Ratio (Klebsiella pneumoniae [1]) of 4, an MIC (Klebsiella pneumoniae [2]) of 64 µg/mL and an MIC (Pseudomonas aeruginosa [3]) of 2 to 32 µg/mL. It also gave an MIC (Acinetobacter baumannii [4]) of 4 µg/mL (≈ 5.72 µM), an MIC (Klebsiella pneumoniae [5]) of 128 µg/mL and an MIC (Acinetobacter baumannii [6]) of 1 to 2 µg/mL (≈ 1.43 to 2.86 µM). The Activity (Acinetobacter baumannii [7]) was “Active”, the MIC (Klebsiella pneumoniae [8]) was 0.5 µg/mL and the MIC (Klebsiella pneumoniae [9]) was greater than 128 µg/mL. The MIC (Klebsiella pneumoniae [10]) was 1 µg/mL (≈ 1.43 µM), the Ratio (Klebsiella pneumoniae [11]) was 4 and the MIC (Acinetobacter baumannii [12]) was 4 µg/mL (≈ 5.72 µM). The MIC (Klebsiella pneumoniae [13]) was 128 µg/mL (≈ 183 µM), the MIC (Klebsiella pneumoniae [14]) was 8 µg/mL and the MIC (Acinetobacter baumannii [15]) was 4 µg/mL. For the same compound, the MIC (Klebsiella pneumoniae [16]) was 128 µg/mL, the Ratio (Klebsiella pneumoniae [17]) was 4 and the Activity (Klebsiella pneumoniae [18]) was “Active”. The Activity (Klebsiella pneumoniae [19]) was “Active”, the Activity (Klebsiella pneumoniae [20]) was “inactive” and the MIC (Pseudomonas aeruginosa [21]) was greater than 32 µg/mL. The Ratio (Klebsiella pneumoniae [22]) was 4, the MIC (Klebsiella pneumoniae [23]) was 8 µg/mL and the Ratio (Klebsiella pneumoniae [24]) was 4. For the same compound, the MIC (Acinetobacter baumannii [25]) was 4 µg/mL (≈ 5.72 µM), the MIC (Klebsiella pneumoniae [26]) was 4 µg/mL and the MIC (Klebsiella pneumoniae [27]) was 32 µg/mL (≈ 45.8 µM). For the same compound, the MIC (Klebsiella pneumoniae [28]) was greater than 128 µg/mL, the MIC (Klebsiella pneumoniae [29]) was 32 µg/mL and the Activity (Acinetobacter baumannii [30]) was “Active”.

In the case of `COc1cc2c(cc1OCCCC(=O)Nc1cc(C(=O)Nc3ccc4sc(C(=O)N(C)C)cc4c3)n(C)c1)N=C[C@@H]1CCCN1C2=O`, the Ratio [31] is reported as greater than 4, the Activity (Klebsiella pneumoniae [32]) is reported as 1 ×10⁻⁶ No_unit and the Activity (Klebsiella pneumoniae [33]) is reported as “Below limit of detection”. For the same compound, the Activity (Acinetobacter baumannii [34]) was “Active”, the Activity (Escherichia coli) was less than 4.3 ×10⁻⁸ No_unit and the Ratio (Acinetobacter baumannii [35]) was 4. For the same compound, the Ratio (Acinetobacter baumannii [36]) was 4, the Activity (Acinetobacter baumannii [37]) was less than 1.5 ×10⁻⁸ No_unit and the Activity (Acinetobacter baumannii [38]) was “inactive”. The Activity (Klebsiella pneumoniae [39]) was “Below limit of detection”.

From ChEMBL document CHEMBL4610120, “New Broad-Spectrum Antibiotics Containing a Pyrrolobenzodiazepine Ring with Activity against Multidrug-Resistant Gram-Negative Bacteria” (J Med Chem, 2020)
